The values below come from patent US9345731B2, “Herbal extract as sensitivity enhancer toward insulin and antidiabetes” (PT. DEXA MEDICA, priority 2008, dated 2016).

Data set [1] has as its system 3T3 Swiss Albino cells. Description: In vitro toxicity test (MTT) on cell viability. Format: cell-based. Conditions: 0.02 μM, 48 hours.
Protocol: METHODS: 3T3 Swiss Albino cells were cultured in 96-well plates. The cells were then administered with the extract combination of Lagerstroemia speciosa and Cinnamomum burmannii in a range of dose 1-10 μg/ml, pioglitazone and glimepiride (as control) for 48 hours to study the extract toxicity towards cells. Each well was added MTT reagent and the number of living cells was counted using a spectrometer.
Data set [2] relates to insulin resistance adipocytes 3T3 Swiss Albino cells. As to the kind of experiment: Glucose uptake by insulin resistance adipocytes (anthrone reagent, spectrophotometer). The format is cell-based. Conditions: 5 μg/ml extract combination or 0.02 μM pioglitazone, 48 hours, from the initial 5% (untreated). The protocol:
FIG. 12 is the graphic of glucose measurement results obtained from insulin resistance adipocytes 3T3 Swiss Albino after administration of 5 μg/ml Lythraceae and Lauraceae family plant combination extracts or 0.02 μM pioglitazone and/or 25 nM insulin during 48 hours incubation, then incubation with 5 mg/ml glucose for 0, 2, 4, 6 hours. 3T3 Swiss Albino cells were differentiated until 3T3 Swiss Albino pre-adipocytes and 3T3 Swiss Albino adipocytes cells were obtained. Each cell type received excessive glucose for over 2 weeks. Incubated cells received such excessive glucose were used as insulin resistance model. After that, those four type cells obtained were tested for its ability to uptake glucose in media. The remaining glucose level was analyzed so that the glucose level uptaken by each 3T3 Swiss Albino cell type could be determined. To measure glucose level that was uptaken by cell, we used an experiment method which is initialized by culturing 3T3 Swiss Albino cells in 6 cm-diameter plates. […] Glucose concentration that was uptaken by cells was measured by subtracting the initial glucose concentration with the remaining glucose in media at the end of incubation time. […] The reaction result was quantified by spectrophotometer.

`CCC1=C(C)CN(C(=O)NCCc2ccc(S(=O)(=O)NC(=O)N[C@H]3CC[C@H](C)CC3)cc2)C1=O` [glimepiride]: in data set [1], the cell viability entry was “did not show any effect”.

For `CCc1ccc(CCOc2ccc(CC3SC(=O)NC3=O)cc2)nc1` (stereo not drawn) [pioglitazone], the glucose level uptaken in data set [2] is listed as 20%. The cell viability result in data set [1] was “did not show any effect”.
